The results in this text go back to US7807781B2, “Inhibitors of serine protease activity and their use in methods and compositions for treatment of viral infections” (The Regents of the University of Colorado, priority 1999, dated 2010).

Like-named read-outs stand apart in the source and are kept apart here.

This assay deals with lymphocyte-tropic HIV-1 strain A018A in PBMC. The format is cell-based.

Take “AAT: Alpha-1-antitrypsin purified from the blood of healthy volunteers to single-band homogeneity”: the “effect on p24 antigen production of AAT present during infection only” value (AAT removed, 4 days of culture in medium alone) is listed as “did not affect”. Also, the p24 produced reads like this: (PBMC infected in absence of AAT, 4 days with AAT 0.1 mg/ml) 8,687±1,304 pg/ml; (PBMC infected in absence of AAT, 4 days with AAT 0.5 mg/ml) 7,392±1,299 pg/ml; (PBMC infected in absence of AAT, 4 days with AAT 1.0 mg/ml) 6,613 pg/ml; (PBMC infected in absence of AAT, 4 days with AAT 2.0 mg/ml) 6,258±1,772 pg/ml; (PBMC infected in absence of AAT, 4 days with AAT 3.0 mg/ml) 5,275±316 pg/ml; (PBMC infected in absence of AAT, 4 days with AAT 4.0 mg/ml) 4,725±101 pg/ml. Also, the p24 produced by setting is: (PBMC infected in absence of AAT, 4 days with AAT 5.0 mg/ml) 3,508 pg/ml; (PBMC infected in presence of 3 mg/ml AAT, 4 days with AAT 0.1 mg/ml) 6,620±2,026 pg/ml; (PBMC infected in presence of 3 mg/ml AAT, 4 days with AAT 0.5 mg/ml) 6,047±1,322 pg/ml; (PBMC infected in presence of 3 mg/ml AAT, 4 days with AAT 1.0 mg/ml) 6,014±2,055 pg/ml; (PBMC infected in presence of 3 mg/ml AAT, 4 days with AAT 2.0 mg/ml) 2,516±345 pg/ml; (PBMC infected in presence of 3 mg/ml AAT, 4 days with AAT 3.0 mg/ml) 3,360±371 pg/ml. Moreover, the p24 produced is 2,743±316 pg/ml (PBMC infected in presence of 3 mg/ml AAT, 4 days with AAT 4.0 mg/ml) and 2,713±645 pg/ml (PBMC infected in presence of 3 mg/ml AAT, 4 days with AAT 5.0 mg/ml). The “reduction in p24 antigen compared to control cultures” value runs as follows: (PBMC infected in absence of AAT, AAT 4.0 mg/ml) 22%; (PBMC infected in absence of AAT, AAT 5.0 mg/ml) 46%. Moreover, the “reduction in p24 production compared to control cultures” value stood at 71% (PBMC infected in presence of 3 mg/ml AAT, AAT 2.0 mg/ml); 61% (PBMC infected in presence of 3 mg/ml AAT, AAT 3.0 mg/ml); 65% (PBMC infected in presence of 3 mg/ml AAT, AAT 4.0 mg/ml); 67% (PBMC infected in presence of 3 mg/ml AAT, AAT 5.0 mg/ml). Moreover, the “Maximal p24 reduction in PBMC exposed to AAT for 4 days” value (cells infected in the absence of AAT) turned out to be 46% and the “Maximal p24 reduction in PBMC exposed to AAT for 4 days” value (cells infected in the presence of AAT) stood at 71%.
